The results in this text go back to US9932339B2, “Helquats with heteroaromatic substituents, preparation thereof, and use thereof as G-quadruplex stabilizers” (USTAV ORGANICKE CHEMIE A BIOCHEMIE AV CR, V.V.I., priority 2014, dated 2018).

Assay [1] concerns G-quadruplex in promoter region of the c-myc gene (NHE III1 segment). Briefly: Dual luciferase analysis with plasmid pGL4.10-myc (luc2) in HGC-27 cells. The assay is classed as cell-based, human. The following applies: for inhibition at 50 µM / activity at 50 µM: Homo sapiens; for inhibition at 50 µM: HGC-27, text summary of tab. 5 (50 μmol·l^−1), read-out: inhibition of expression of firefly luciferase as compared to control; for activity at 50 µM: helquat 50 μmol · l^−1, HGC-27, firefly normalized to Renilla, 24 hours after transfection, read-out: luciferase expression relative to control (control = 100%); for Quantification of expression relative to control (%): control = 100%. In short, it runs like this: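 HGC-27 cells were co-transfected 1:1 with pGL4.10-myc (luc2), whose firefly luciferase is driven by an 860 bp c-myc regulatory region containing the G-quadruplex-forming NHE III1 segment, and pRL-TK Renilla control, using X-tremeGENE HP DNA in OptiMEM. Compounds were added two hours post-transfection; luminescence read 24 hours after transfection was Renilla-normalized and expressed relative to control.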

Assay [2] concerns G-quadruplex oligonucleotide Fmyc27T (NHE III1 promoter region of c-myc oncogene). The experiment in a line: FRET melting of G-quadruplex oligonucleotide Fmyc27T with ligands. It is filed as binding. The following applies: for ΔTm (° C.) Fmyc27T/ds26 (° C.): helquat 1 μmol·l^−1, oligonucleotide 0.2 μmol·l^−1, 50-fold excess of double-stranded competitor ds26; for ΔTm (° C.) Fmyc27T: helquat 1 μmol·l^−1, oligonucleotide 0.2 μmol·l^−1, without competitor. The source says:
To determine the degree of in vitro interactions of helquats with G-quadruplex(es), the oligonucleotides containing the guanine-rich sequences of human telomere (F21T) and NHE III1 promoter region of c-myc oncogene (Fmyc27T) were used. Both oligonucleotides capable of forming an intramolecular G-quadruplex were end-labeled with suitable fluorophores so as to form donor-acceptor FRET pair (5′-FAM and 3′-TAMRA). If the oligonucleotide is folded into the structure of the G-quadruplex, donor is in close proximity of acceptor and radiationless energy transfer to the acceptor occurs. With increasing temperature of the reaction mixture G-quadruplex structure gradually denatures and thus the donor and acceptor (FAM-TAMRA) drift apart. This leads to an increase in fluorescence of donor (FAM) and a decrease in fluorescence of acceptor (TAMRA).
The result of measurement is the curve of dependence of the intensity of fluorescence of the donor on the temperature. If the G-quadruplex is stabilized by ligand, melting temperature will increase. Melting temperature of G-quadruplex corresponds to the temperature when 50% of the original amount of the folded G-quadruplex is denatured. The measurement outcome is the difference in the melting temperatures (ΔTm) of the G-quadruplex alone and the G-quadruplex stabilized by ligand. In case of Fmyc27T experiments were performed in cacodylate buffer (10 mmol·l^−1, pH=7.2) with KCl (5 mmol·l^−1) and LiCl (95 mmol·l^−1) oligonucleotide and in case of F21T oligonucleotide in cacodylate buffer (10 mmol·l^−1, pH=7.2) with KCl (25 mmol·l^−1) and LiCl (75 mmol·l^−1).
Both oligonucleotides were denatured for 5 minutes at 95° C. and subsequently allowed to cool to room temperature (3 hours) in the switched-off thermoblock. The final oligonucleotide concentration in the reaction mixture was 0.2 μmol·l^−1. Test helquats were present at concentrations of 1 μmol·l^−1. The total reaction volume was 30 μl. The melting temperature of the oligonucleotides alone (without the presence of helquats) under these conditions was 58.1±0.2° C. for F21T and 64.7±0.4° C. for Fmyc27T. For determining the selectivity of binding of helquats to G-quadruplex in comparison with the double-stranded DNA, 50-fold excess of double-stranded DNA ([…] unlabeled competitor ds26 forming a hairpin) is added to the reaction mixture. After the addition to the reaction mixture ds26 competes with labeled oligonucleotide (Fmyc27T or F21T) for ligand binding. […] Melting temperature of oligonucleotides alone in the presence of the competitor is 59.4±0.5° C. for F21T and 66.3° C.±0.6° C. for Fmyc27T.
Fluorescence of FAM donor was measured using real-time PCR apparatus Opticon 2 (excitation 470-505 nm and emission 523-543 nm) in temperature increments of 0.5° C. in the range 25 to 95° C. Evaluation of the sigmoid curves of fluorescence intensity dependent on the temperature were performed in GraphPad Prism 5 (GraphPad Software, Inc., USA). Using nonlinear five parametric regression the inflection point on the curve was calculated that corresponds to the melting temperature (Tm) of the G-quadruplex under the given conditions. The values were obtained from at least three independent measurements.

For `O=[N+]([O-])c1cccc2[nH]cc(/C=C/c3cc[n+]4c(c3)-c3c(ccc5c3-c3cccc[n+]3CC5)CC4)c12` (racemic) [LSA-C9-32, (rac)-(E)-2-(2-(4-nitro-1H-indol-3-yl)vinyl)-6,7,10,11-tetrahydrodipyrido[2,1-a:1′,2′-k][2,9]phenanthroline-5,12-diium trifluoromethanesulfonate], in assay [1], the inhibition (as a rule, the share of the control response that was lost under treatment) at 50 µM was above 20% and the activity at 50 µM came out at 74%. Also, in assay [2], the “ΔTm (° C.) Fmyc27T/ds26 (° C.)” value turned out to be 8.1 °C and the “ΔTm (° C.) Fmyc27T” value came out at 10.4 °C.
Consider `Cc1c(C)c2c(c3c1CC[n+]1ccc(/C=C/c4cccc5c4oc4ccccc45)cc1-3)-c1c3ccccc3cc[n+]1CC2` (racemic) [MJA-C13-8, (rac)-(E)-13-(2-(dibenzo[b,d]furan-4-yl)vinyl)-6,7-dimethyl-4,5,8,9-tetrahydroisoquinolino[1,2-a]pyrido[1,2-k][2,9]phenanthroline-3,10-diium trifluoromethanesulfonate], for which the figures for the “Quantification of expression relative to control (%)” value in assay [1] (10 μmol · l^−1), in assay [1] (50 μmol · l^−1) and in assay [1] (150 μmol · l^−1) were 79.3 ± 6.7%, 69.8 ± 6.0% and 57.9 ± 2.5%, respectively. Besides, the inhibition at 50 µM in assay [1] was above 40%. For the same compound, in assay [1], the activity at 50 µM is 56%. The “ΔTm (° C.) Fmyc27T/ds26 (° C.)” value in assay [2] turned out to be 4.9 °C. For the same compound, the “ΔTm (° C.) Fmyc27T” value in assay [2] amounted to 11.0 °C.
On to `C(=C\c1cccc2c1oc1ccccc12)/c1cc[n+]2c(c1)-c1c(ccc3c1-c1c4ccccc4cc[n+]1CC3)CC2.O=S(=O)([O-])C(F)(F)F.O=S(=O)([O-])C(F)(F)F` [MSB-C13-8, (E)-13-(2-(dibenzo[b,d]furan-4-yl)vinyl)-4,5,8,9-tetrahydroisoquinolino[1,2-a]pyrido[1,2-k][2,9]phenanthroline-3,10-diium trifluoromethanesulfonate], for which, in assay [2], the “ΔTm (° C.) Fmyc27T/ds26 (° C.)” value is 7.7 °C and the “ΔTm (° C.) Fmyc27T” value was determined as 12.6 °C.
As to `Brc1ccc2[nH]cc(/C=C/c3cc4ccccc4[n+]4c3-c3c(ccc5c3-c3cccc[n+]3CCC5)CCC4)c2c1.O=S(=O)([O-])C(F)(F)F.O=S(=O)([O-])C(F)(F)F` [MSC-C9-30, 19-((E)-2-(5-bromo-1H-indol-3-yl)vinyl)-6,7,8,11,12,13-hexahydropyrido[1′″,2′″:1″,2″]azepino[4″,3″:5′,6′]benzo[1′,2′:3,4]azepino[1,2-a]quinoline-5,14-diium trifluoromethanesulfonate], in assay [1], the inhibition at 50 µM is above 20% and the activity at 50 µM is 68%.
The like results for `C(=C\c1c(-c2ccccc2)[nH]c2ccccc12)/c1cc2ccccc2[n+]2c1-c1c(ccc3c1-c1cccc[n+]1CCC3)CCC2.O=S(=O)([O-])C(F)(F)F.O=S(=O)([O-])C(F)(F)F` [MSC-C15-8, 19-((E)-2-(2-phenyl-1H-indol-3-yl)vinyl)-6,7,8,11,12,13-hexahydropyrido[1′″,2′″:1″,2″]azepino[4″,3″:5′,6′]benzo[1′,2′:3,4]azepino[1,2-a]quinoline-5,14-diium trifluoromethanesulfonate] were, in that order, above 20% and 76%.
